Laboratory results: patent US20220249622A1, “METHOD FOR PROTECTING BRAIN NEURON CELLS WITH BIOACTIVE COMPOUND” (TCI CO., LTD., priority 2021, published 2022)

Tests used:
[1] = system: human brain neurons SH-SYSY; test: Inhibitory effect on brain neuron damage caused by MPP+ (MTT cell viability); assay type: cell-based; details: 5 μM MPP+ alone (control group), 48 hours
Procedure: The cells, culture medium, MTT apoptosis detection solution, ELISA reader, and statistical method of cell viability used in this example are the same as in Example 5, and details are not described herein again.
The SII-SYSY cells were seeded at a density of 5×10^3 cells per well into a 96-well culture plate and incubated for 24 hours at 37° C. and 5% CO2.
The culture medium was removed from each well. The SH-SYSY cells were divided into a blank group, a control group, and an experimental group. The fresh culture medium was added into the wells of the blank group. The fresh culture medium containing 5 μM MPP+ was added into the wells of the control group. The fresh culture medium containing 5 μM MPP+ and 1 mg/mL catfish skin collagen peptide powder from Example 1 was added into the wells of the experimental group. Each group was triplicated and incubated at 37° C. for 48 hours.
Then, 15 μL of 5 MTT apoptosis detection solution was added to each group for 3-4 h at 37° C. and 5% CO2.
The culture medium in each well was removed. In each group, 50 μL of DMSO was added to dissolve the purple crystals of formazan. Finally, an absorbance (at 570 nm) of each group was measured by an ELISA reader to analyze the cell viability of each group.
Taking the value of the blank group as 100% of cell viability, each value of the control group and the experimental group was converted into cell viability (%).

[2] = system: mouse brain neuroblastoma cells Nero2a; test: Activity of mitochondria of neuron cells (JC-1 mitochondrial membrane potential assay, flow cytometer); assay type: cell-based; details: 24 hours, control group = 100%
From the text: 1. Cell strain: mouse brain neuroblastoma. cells Nero2a, from the American Type
Culture Collection (ATCC®, Cat. CCL-131), hereinafter referred to as Nero2a cells.
2. Culture medium: Dulbecco's modified Eagle's medium (DMEM, purchased from Gibco, Cat. 11965-092) containing 10 vol % of Fetal Bovine Serum (FBS, purchased from Gibco, 10437-028) and 3.7 g/L of sodium bicarbonate (purchased from Sigma, S5761-500G).
4. Mitochondrial n embranepotential assay kit (MitoScreen (.IC-1) kit purchased from BD, model 551302): with ,IC-1 dye (lyophilized) and 10× assay buffer. Before use, the assay buffer was diluted 10-fold with 1 PBS solution to form 1× assay buffer, 130 μl of dimethyl sulfoxide (DMSO) was added into the JC-1 dye (lyophilized) to form a JC-1 stock solution. Then, the stock solution was diluted to 1/100 with the 1 × assay buffer to form a JC-1 working reagent
6. Flow cytometer: purchased from BD Pharmingen, model BDTM Accuri C6 Plus.
The Nero2a cells were seeded into a 6-well culture plate at a density of […] cells per well, and 2 ml., of the above-mentioned fresh culture medium was added to each well and incubated for 24 hours at 37° C. and 5% CO2.
Remove the culture medium from each well. The Nero2a cells were divided into a control group and experimental groups 1-5. Control group was added with the fresh culture medium. Experimental group I was added with fresh culture medium containing 50 μg/mL synthesized peptide of SEQ .117 NO :1; experimental group 2 was added with fresh culture medium containing 50 μg/mL synthesized peptide of SEQ ID NO:2; experimental group 3 was added with fresh culture medium containing 50 μg/mL synthesized peptide of SEQ ID NO 3, experimental group 4 was added with fresh culture medium containing 25 μg/mL synthesized peptide of SEQ ID NO:4; and experimental group 5 was added with fresh culture medium containing 1 mg/mL of catfish skin collagen peptide powder from Example. 1. Each group was triplicated and incubated at 37C. for 24 hours.
In each group, the culture medium was removed, and then the cells were washed twice with the PBS solution. Then, 200 μL of trypsin solution was added to react with the cells for 3 min, and 6 mL of fresh culture medium was added to stop the reaction. […]
The cell solution of the control group and the cell solution of each experimental group were analyzed for the activity of mitochondria by using a flow cytometer.
Standard deviations were calculated by an STDEV formula of Excel software, and whether statistically significant differences existed or not was analyzed by one-tail student t-test in the Excel software. […] The p value of each group was calculated compared to the control group. […]

| Molecule | relative accumulation of JC-1 ([2]; 50 μg/mL synthesized peptide) | other results |
| --- | --- | --- |
| C[n+]1ccc(-c2ccccc2)cc1 [MPP+, 1-methyl-4-phenylpyridin-1-ium] | – | cell viability ([1]; SH-SYSY cells, blank group = 100%): 86%; cell viability reduced by ([1]; vs blank group): 14% |
| GRGGFGGRGGFG (listed as Pangasius bocourti) [SEQ ID NO: 3, synthesized peptide, peptide fragment of nucleolin from catfish skin] | 120.95% | – |
| LVMGFHPQYL (listed as Pangasius bocourti) [SEQ ID NO: 4, synthesized peptide, peptide fragment of sestrin 1 from catfish skin] | – | relative accumulation of JC-1 ([2]; 25 μg/mL synthesized peptide): 115.74% |
| NGTGPQNH (listed as Pangasius bocourti) [SEQ ID NO: 1] | 146.90% | – |
| TAELEPLTDG (listed as Pangasius bocourti) [SEQ ID NO: 2, synthesized peptide, peptide fragment of NAD synthetase 1 from catfish skin] | 150,17% | – |
